Experimental data as given in paper PMC9490042 (iScience, 2022).
Counter-ions that a name gives are not always drawn. Like-named read-outs stand apart in the source and are kept apart here.

Legend:
Assay in all cases: steady-state tryptophan fluorescence quenching titration in PBS
Type in all cases: binding
[1] = target: T1, bovine serum albumin (BSA) (Bos taurus, UniProt P02769)
[2] = target: T1, bovine serum albumin (BSA); remark: listed apart in the source
[3] = target: hen egg-white lysozyme (HEWL) (Gallus gallus, UniProt P00698)
Chain of hen egg-white lysozyme (HEWL) (P00698 19-147): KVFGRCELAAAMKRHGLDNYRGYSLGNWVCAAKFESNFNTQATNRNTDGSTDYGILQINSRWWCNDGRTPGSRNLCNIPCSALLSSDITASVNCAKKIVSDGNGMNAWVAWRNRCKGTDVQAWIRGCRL

T1 sequence (P02769 25-607): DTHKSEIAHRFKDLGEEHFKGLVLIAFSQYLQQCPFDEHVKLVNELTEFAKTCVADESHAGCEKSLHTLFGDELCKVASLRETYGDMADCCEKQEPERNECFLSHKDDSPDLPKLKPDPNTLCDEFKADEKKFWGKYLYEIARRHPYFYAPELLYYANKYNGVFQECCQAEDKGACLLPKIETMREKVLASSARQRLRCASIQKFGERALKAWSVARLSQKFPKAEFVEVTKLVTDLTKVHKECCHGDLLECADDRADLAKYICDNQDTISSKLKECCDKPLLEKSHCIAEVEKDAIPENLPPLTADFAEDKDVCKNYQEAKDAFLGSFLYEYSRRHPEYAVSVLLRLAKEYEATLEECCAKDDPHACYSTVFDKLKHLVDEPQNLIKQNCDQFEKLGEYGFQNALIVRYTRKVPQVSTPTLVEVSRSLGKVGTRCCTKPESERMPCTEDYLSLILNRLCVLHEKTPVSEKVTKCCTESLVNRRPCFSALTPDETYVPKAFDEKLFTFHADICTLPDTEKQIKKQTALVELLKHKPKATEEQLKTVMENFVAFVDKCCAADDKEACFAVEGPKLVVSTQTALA

Kd [1] [µM] | Kd [2] [µM] | Kd [3] [µM] | SMILES
4.6 ± 1.1 | – | – | CCN(CC)CCCC(C)Nc1c2ccc(Cl)cc2nc2ccc(OC)cc12 (stereo not shown) [Quinacrine dihydrochloride]
16.5 ± 2.5 | – | – | COc1cccc2c1C(=O)c1c(O)c3c(c(O)c1C2=O)C[C@@](O)(C(=O)CO)C[C@@H]3O[C@H]1C[C@H](N)[C@H](O)[C@H](C)O1 [Doxorubicin]
– | 5.2 ± 1.2 | 1.7 ± 0.7 | Cn1cc(C2=C(c3ccc(Cl)cc3Cl)C(=O)NC2=O)c2ccccc21 [SB216763]
